ChEMBL document CHEMBL3217578, “Synthesis of a novel thiophene derivative that induces cancer cell apoptosis through modulation of AKT and MAPK pathways” (Medchemcomm, 2012)
Converted amounts (≈) assume the structure as drawn. The source made the active and inactive calls. The rule behind the calls is not given here.

Assays:
[1] = tested on: N2a; assay: Induction of apoptosis in mouse Neuro2a cells assessed as activation of caspase-3 at 8 ug/ml using Ac-[…]-AFC as substrate by fluorometric assay relative to control; assay type: functional
[2] = tested on: N2a; assay: Induction of apoptosis in mouse Neuro2a cells assessed as reduction of ROS production after 3 hrs by DCF fluorescence assay; assay type: functional, cell-based
[3] = tested on: N2a; assay: Cytotoxicity against mouse Neuro2a cells at 8 ug/ml after 24 hrs by MTT assay in presence of NAC; assay type: functional, cell-based
[4] = Antioxidant activity assessed as ABTS free radical scavenging activity; assay type: functional; conditions: TDE = time-dependent effect
[5] = biological target: RAC-alpha serine/threonine-protein kinase (Mus musculus) (UniProt P31750); assay: Inhibition of AKT phosphorylation in mouse Neuro2a cells after 24 hrs by Western blot analysis; assay type: cell-based
[6] = biological target: RAC-alpha serine/threonine-protein kinase (Mus musculus) (UniProt P31750); assay: Inhibition of AKT phosphorylation in mouse Neuro2a cells assessed as total protein level after 24 hrs by Western blot analysis; assay type: cell-based
[7] = tested on: Neuro2a; assay: Inhibition of ERK phosphorylation in mouse Neuro2a cells at 2 ug/ml after 24 hrs by Western blot analysis relative to beta-actin; assay type: cell-based
[8] = tested on: Neuro2a; assay: Inhibition of ERK phosphorylation in mouse Neuro2a cells assessed as total protein level at 2 ug/ml after 24 hrs by Western blot analysis relative to beta-actin; assay type: cell-based
[9] = tested on: Neuro2a; assay: Inhibition of JNK phosphorylation in mouse Neuro2a cells at 2 ug/ml after 24 hrs by Western blot analysis relative to beta-actin; assay type: cell-based
[10] = biological target: T1, MAP kinase p38 (Mus musculus) (UniProt P47811+O08911+Q9WUI1+Q9Z1B7); assay: Inhibition of p38 phosphorylation in mouse Neuro2a cells at 2 to 8 ug/ml after 24 hrs by Western blot analysis; assay type: cell-based
[11] = tested on: Neuro2a; assay: Inhibition of JNK phosphorylation in mouse Neuro2a cells assessed as total protein level at 2 to 8 ug/ml after 24 hrs by Western blot analysis; assay type: cell-based
[12] = biological target: RAC-alpha serine/threonine-protein kinase (Mus musculus) (UniProt P31750); assay: Inhibition of AKT phosphorylation in mouse Neuro2a cells at 2 ug/ml after 24 hrs by Western blot analysis relative to beta-actin; assay type: cell-based
[13] = biological target: RAC-alpha serine/threonine-protein kinase (Mus musculus) (UniProt P31750); assay: Inhibition of AKT phosphorylation in mouse Neuro2a cells at 4 ug/ml after 24 hrs by Western blot analysis relative to beta-actin; assay type: cell-based
[14] = biological target: RAC-alpha serine/threonine-protein kinase (Mus musculus) (UniProt P31750); assay: Inhibition of AKT phosphorylation in mouse Neuro2a cells at 8 ug/ml after 24 hrs by Western blot analysis relative to beta-actin; assay type: cell-based
[15] = biological target: RAC-alpha serine/threonine-protein kinase (Mus musculus) (UniProt P31750); assay: Inhibition of AKT phosphorylation in mouse Neuro2a cells assessed as total protein level at 2 ug/ml after 24 hrs by Western blot analysis relative to beta-actin; assay type: cell-based
[16] = biological target: RAC-alpha serine/threonine-protein kinase (Mus musculus) (UniProt P31750); assay: Inhibition of AKT phosphorylation in mouse Neuro2a cells assessed as total protein level at 4 ug/ml after 24 hrs by Western blot analysis relative to beta-actin; assay type: cell-based
[17] = biological target: RAC-alpha serine/threonine-protein kinase (Mus musculus) (UniProt P31750); assay: Inhibition of AKT phosphorylation in mouse Neuro2a cells assessed as total protein level at 8 ug/ml after 24 hrs by Western blot analysis relative to beta-actin; assay type: cell-based
[18] = tested on: Neuro2a; assay: Inhibition of ERK phosphorylation in mouse Neuro2a cells at 4 ug/ml after 24 hrs by Western blot analysis relative to beta-actin; assay type: cell-based
[19] = tested on: Neuro2a; assay: Inhibition of ERK phosphorylation in mouse Neuro2a cells at 8 ug/ml after 24 hrs by Western blot analysis relative to beta-actin; assay type: cell-based
[20] = tested on: Neuro2a; assay: Inhibition of ERK phosphorylation in mouse Neuro2a cells assessed as total protein level at 4 ug/ml after 24 hrs by Western blot analysis relative to beta-actin; assay type: cell-based
[21] = tested on: Neuro2a; assay: Inhibition of ERK phosphorylation in mouse Neuro2a cells assessed as total protein level at 8 ug/ml after 24 hrs by Western blot analysis relative to beta-actin; assay type: cell-based
[22] = biological target: T1, MAP kinase p38 (Mus musculus); assay: Inhibition of p38 phosphorylation in mouse Neuro2a cells assessed as total protein level at 2 ug/ml after 24 hrs by Western blot analysis relative to beta-actin; assay type: cell-based
[23] = tested on: Neuro2a; assay: Inhibition of JNK phosphorylation in mouse Neuro2a cells at 4 ug/ml after 24 hrs by Western blot analysis relative to beta-actin; assay type: cell-based
[24] = tested on: Neuro2a; assay: Inhibition of JNK phosphorylation in mouse Neuro2a cells at 8 ug/ml after 24 hrs by Western blot analysis relative to beta-actin; assay type: cell-based
[25] = tested on: Neuro2a; assay: Inhibition of JNK phosphorylation in mouse Neuro2a cells assessed as total protein level at 2 ug/ml after 24 hrs by Western blot analysis relative to beta-actin; assay type: cell-based
[26] = tested on: Neuro2a; assay: Inhibition of JNK phosphorylation in mouse Neuro2a cells assessed as total protein level at 4 ug/ml after 24 hrs by Western blot analysis relative to beta-actin; assay type: cell-based
[27] = tested on: Neuro2a; assay: Inhibition of JNK phosphorylation in mouse Neuro2a cells assessed as total protein level at 8 ug/ml after 24 hrs by Western blot analysis relative to beta-actin; assay type: cell-based
[28] = biological target: T1, MAP kinase p38 (Mus musculus); assay: Inhibition of p38 phosphorylation in mouse Neuro2a cells assessed as total protein level at 4 ug/ml after 24 hrs by Western blot analysis relative to beta-actin; assay type: cell-based
[29] = biological target: T1, MAP kinase p38 (Mus musculus); assay: Inhibition of p38 phosphorylation in mouse Neuro2a cells assessed as total protein level at 8 ug/ml after 24 hrs by Western blot analysis relative to beta-actin; assay type: cell-based
[30] = (§1) Cytotoxicity against mouse Neuro2a cells after 72 hrs by MTT assay; assay type: functional, cell-based; conditions: N2a
[31] = tested on: N2a; assay: as §1; assay type: functional, cell-based
[32] = Cytotoxicity against human MG63 cells after 72 hrs by MTT assay; assay type: functional, cell-based; conditions: MG-63, 72 h
[33] = Cytotoxicity against human HeLa 229 cells after 72 hrs by MTT assay; assay type: functional, cell-based; conditions: HeLa 229, 72 h
[34] = tested on: A-375; assay: Cytotoxicity against human A375 cells after 72 hrs by MTT assay; assay type: functional, cell-based; conditions: A-375, 72 h
[35] = tested on: PC-3; assay: Cytotoxicity against human PC3 cells after 72 hrs by MTT assay; assay type: functional, cell-based; conditions: PC-3, 72 h
[36] = Cytotoxicity against human HK2 cells after 72 hrs by MTT assay; assay type: cell-based; conditions: HK-2, 72 h
[37] = Cell cycle arrest in mouse Neuro2a cells assessed as accumulation at sub-G1 phase at 2 ug/ml after 72 hrs using propidium iodide staining by flow cytometry analysis (reference value: 4.7%); assay type: functional, cell-based; conditions: N2a
[38] = Cell cycle arrest in mouse Neuro2a cells assessed as accumulation at G0/G1 phase at 2 ug/ml after 72 hrs using propidium iodide staining by flow cytometry analysis (reference value: 41.6%); assay type: functional, cell-based; conditions: N2a
[39] = Cell cycle arrest in mouse Neuro2a cells assessed as accumulation at S phase at 2 ug/ml after 72 hrs using propidium iodide staining by flow cytometry analysis (reference value: 48.5%); assay type: functional, cell-based; conditions: N2a
[40] = Cell cycle arrest in mouse Neuro2a cells assessed as accumulation at G2/M phase at 2 ug/ml after 72 hrs using propidium iodide staining by flow cytometry analysis (reference value: 9.9%); assay type: functional, cell-based; conditions: N2a
[41] = Cell cycle arrest in mouse Neuro2a cells assessed as accumulation at sub-G1 phase at 4 ug/ml after 72 hrs using propidium iodide staining by flow cytometry analysis (reference value: 4.7%); assay type: functional, cell-based; conditions: N2a
[42] = Cell cycle arrest in mouse Neuro2a cells assessed as accumulation at G0/G1 phase at 4 ug/ml after 72 hrs using propidium iodide staining by flow cytometry analysis (reference value: 41.6%); assay type: functional, cell-based; conditions: N2a
[43] = Cell cycle arrest in mouse Neuro2a cells assessed as accumulation at S phase at 4 ug/ml after 72 hrs using propidium iodide staining by flow cytometry analysis (reference value: 48.5%); assay type: functional, cell-based; conditions: N2a
[44] = Cell cycle arrest in mouse Neuro2a cells assessed as accumulation at G2/M phase at 4 ug/ml after 72 hrs using propidium iodide staining by flow cytometry analysis (reference value: 9.9%); assay type: functional, cell-based; conditions: N2a
[45] = Cell cycle arrest in mouse Neuro2a cells assessed as accumulation at sub-G1 phase at 8 ug/ml after 72 hrs using propidium iodide staining by flow cytometry analysis (reference value: 4.7%); assay type: functional, cell-based; conditions: N2a
[46] = Cell cycle arrest in mouse Neuro2a cells assessed as accumulation at G0/G1 phase at 8 ug/ml after 72 hrs using propidium iodide staining by flow cytometry analysis (reference value: 41.6%); assay type: functional, cell-based; conditions: N2a
[47] = Cell cycle arrest in mouse Neuro2a cells assessed as accumulation at S phase at 8 ug/ml after 72 hrs using propidium iodide staining by flow cytometry analysis (reference value: 48.5%); assay type: functional, cell-based; conditions: N2a
[48] = Cell cycle arrest in mouse Neuro2a cells assessed as accumulation at G2/M phase at 8 ug/ml after 72 hrs using propidium iodide staining by flow cytometry analysis (reference value: 9.9%); assay type: functional, cell-based; conditions: N2a
[49] = Cell cycle arrest in mouse Neuro2a cells assessed as accumulation at sub-G1 phase after 72 hrs using propidium iodide staining by flow cytometry analysis; assay type: functional, cell-based; conditions: N2a
[50] = tested on: N2a; assay: Induction of apoptosis in mouse Neuro2a cells assessed as DNA fragmentation and nuclear condensation after 24 hrs by TUNEL-DAPI co-staining assay; assay type: functional, cell-based
[51] = tested on: N2a; assay: Induction of apoptosis in mouse Neuro2a cells assessed as activation of caspase-3 using Ac-DEVD-AFC as substrate by fluorometric assay; assay type: functional, cell-based
[52] = tested on: N2a; assay: Induction of apoptosis in mouse Neuro2a cells assessed as activation of caspase-8 using IETD-AFC as substrate by fluorometric assay; assay type: functional, cell-based
[53] = tested on: N2a; assay: Induction of apoptosis in mouse Neuro2a cells assessed as activation of caspase-9 using Ac-LEHD-AFC as substrate by fluorometric assay; assay type: functional, cell-based
[54] = tested on: N2a; assay: Induction of apoptosis in mouse Neuro2a cells assessed as activation of caspase-9 at 4 ug/ml using Ac-LEHD-AFC as substrate by fluorometric assay relative to control; assay type: functional

RAC-alpha serine/threonine-protein kinase (Mus musculus), sequence (P31750 whole entry): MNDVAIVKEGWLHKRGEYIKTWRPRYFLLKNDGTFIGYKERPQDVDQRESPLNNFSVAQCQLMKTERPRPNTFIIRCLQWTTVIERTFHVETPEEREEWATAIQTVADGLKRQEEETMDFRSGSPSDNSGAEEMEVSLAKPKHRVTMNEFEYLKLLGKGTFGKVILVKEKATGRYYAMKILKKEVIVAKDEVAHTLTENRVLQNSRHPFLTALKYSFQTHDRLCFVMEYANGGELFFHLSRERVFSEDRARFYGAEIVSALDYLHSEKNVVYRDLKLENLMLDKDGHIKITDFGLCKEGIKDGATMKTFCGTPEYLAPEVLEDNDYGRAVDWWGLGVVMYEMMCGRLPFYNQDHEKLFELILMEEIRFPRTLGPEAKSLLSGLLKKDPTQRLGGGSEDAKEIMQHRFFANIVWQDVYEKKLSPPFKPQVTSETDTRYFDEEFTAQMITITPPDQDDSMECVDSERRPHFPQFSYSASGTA

SMILES: Oc1ccc(-n2c(-c3cccs3)ccc2-c2cccs2)cc1
- fold change (FC) [1]: 1.5
- Activity [2]: Dose-dependent effect
- growth inhibition (GI) [3]: Active
- Activity [4]: tde
- inhibition [5]: Dose-dependent effect
- inhibition [6]: Dose-dependent effect
- fold change (FC) [7]: 0
- fold change (FC) [8]: 1
- fold change (FC) [9]: 0.9
- inhibition [10]: inactive
- inhibition [11]: inactive
- fold change (FC) [12]: 0.8
- fold change (FC) [13]: 0.3
- fold change (FC) [14]: 0.1
- fold change (FC) [15]: 0.8
- fold change (FC) [16]: 0.7
- fold change (FC) [17]: 0.4
- fold change (FC) [18]: 0
- fold change (FC) [19]: 0
- fold change (FC) [20]: 0.6
- fold change (FC) [21]: 0.6
- fold change (FC) [22]: 1.2
- fold change (FC) [23]: 1.6
- fold change (FC) [24]: 2.1
- fold change (FC) [25]: 1
- fold change (FC) [26]: 1
- fold change (FC) [27]: 0.9
- fold change (FC) [28]: 1.6
- fold change (FC) [29]: 1.7
- IC50 [30]: 2.6 µg/mL (≈ 8.04 µM)
- growth inhibition (GI) [31]: Dose-dependent effect
- IC50 [32]: 39.6 µg/mL (≈ 122 µM)
- IC50 [33]: 36.4 µg/mL (≈ 113 µM)
- IC50 [34]: 27.6 µg/mL (≈ 85.3 µM)
- IC50 [35]: 51.3 µg/mL (≈ 159 µM)
- IC50 [36]: 73.4 µg/mL (≈ 227 µM)
- Activity [37]: 9.1%
- Activity [38]: 39.9%
- Activity [39]: 48.5%
- Activity [40]: 11.6%
- Activity [41]: 19.2%
- Activity [42]: 46.9%
- Activity [43]: 42.6%
- Activity [44]: 10.5%
- Activity [45]: 26.3%
- Activity [46]: 44.4%
- Activity [47]: 38.9%
- Activity [48]: 15.7%
- Activity [49]: Dose-dependent effect
- Activity [50]: Dose-dependent effect
- Activity [51]: Dose-dependent effect
- Activity [52]: Dose-dependent effect
- Activity [53]: Dose-dependent effect
- fold change (FC) [54]: 1.4

SMILES: O=C(CCC(=O)c1cccs1)c1cccs1
- IC50 [30]: 343 µg/mL (≈ 1370 µM)
- IC50 [32]: 366 µg/mL (≈ 1460 µM)
- IC50 [33]: > 400 µg/mL
- IC50 [34]: 115 µg/mL (≈ 459 µM)
- IC50 [35]: > 400 µg/mL
- IC50 [36]: > 400 µg/mL
